Test results reported in BindingDB's records for doi:10.1002/cmdc.200500017 (2006).

Molecular target: T1, Fatty-acid amide hydrolase 1 [30-579] (Rattus norvegicus, UniProt P97612)
T1 construct: 30-579
T1 sequence (P97612 whole entry): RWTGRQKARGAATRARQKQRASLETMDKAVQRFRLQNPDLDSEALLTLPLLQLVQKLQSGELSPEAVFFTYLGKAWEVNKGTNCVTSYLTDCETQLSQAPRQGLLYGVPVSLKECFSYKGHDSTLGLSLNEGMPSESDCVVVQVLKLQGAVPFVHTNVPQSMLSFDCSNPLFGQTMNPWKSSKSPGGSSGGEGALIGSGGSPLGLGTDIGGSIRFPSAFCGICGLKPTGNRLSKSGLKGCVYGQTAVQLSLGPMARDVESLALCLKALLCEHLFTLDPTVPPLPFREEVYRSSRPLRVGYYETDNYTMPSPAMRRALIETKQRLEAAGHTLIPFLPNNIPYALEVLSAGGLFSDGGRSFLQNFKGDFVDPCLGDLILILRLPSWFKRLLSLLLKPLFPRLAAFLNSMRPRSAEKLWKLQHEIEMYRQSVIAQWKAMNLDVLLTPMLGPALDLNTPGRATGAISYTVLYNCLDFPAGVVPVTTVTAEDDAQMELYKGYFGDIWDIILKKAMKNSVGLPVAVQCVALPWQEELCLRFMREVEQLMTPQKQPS
Assay: FAAH Inhibition Assay
Method: Membrane fractions were prepared from Wistar rat brain homogenates, and FAAH activity were assayed by using [3H]anandamide (anandamide[ethanolamine-3H], 60 Cimmol-1, from American Radiolabeled Chemicals, St. Louis, USA) as a substrate.

Row | Compound | IC50
1 | O=C(NC1CCCCC1)Oc1cc(-c2ccccc2)ccc1[N+](=O)[O-] [FAAH Inhibitor, 2a] | > 30000 nM
2 | Nc1ccc(-c2ccccc2)cc1OC(=O)NC1CCCCC1 [FAAH Inhibitor, 2b] | 4830 nM
3 | O=C(NC1CCCCC1)Oc1ccc([N+](=O)[O-])c(-c2ccccc2)c1 [FAAH Inhibitor, 2c] | > 30000 nM
4 | Nc1ccc(OC(=O)NC2CCCCC2)cc1-c1ccccc1 [FAAH Inhibitor, 2d] | 52 nM
5 | NC(=O)c1ccc(OC(=O)NC2CCCCC2)cc1-c1ccccc1 [FAAH Inhibitor, 2e] | 252 nM
6 | Cc1ccc(OC(=O)NC2CCCCC2)cc1-c1ccccc1 [FAAH Inhibitor, 2f] | 176 nM
7 | O=C(NC1CCCCC1)Oc1ccc(O)c(-c2ccccc2)c1 [FAAH Inhibitor, 2g] | 45 nM
8 | O=C(NC1CCCCC1)Oc1ccc(CO)c(-c2ccccc2)c1 [FAAH Inhibitor, 2h] | 46 nM
9 | CN(C)c1ccc(OC(=O)NC2CCCCC2)cc1-c1ccccc1 [FAAH Inhibitor, 2i] | 1590 nM
10 | O=C(NC(=O)c1ccc(OC(=O)NC2CCCCC2)cc1-c1ccccc1)NC1CCCCC1 [FAAH Inhibitor, 2j] | 2740 nM
11 | O=C(NC1CCCCC1)Oc1ccc2ccn(-c3ccccc3)c2c1 [FAAH Inhibitor, 2k] | 1030 nM
12 | O=C(NC1CCCCC1)Oc1cccc(Oc2cccc(-c3ccccc3)c2)c1 [FAAH Inhibitor, 2l] | 2740 nM
